{"source": "patent US20060247244A1", "about": "“Quinoxalinones and their use especially in the treatment of cardiovascular diseases” (BAYER HEALTHCARE AG, priority 2002, published 2006)", "molecular_target": "T1, human M2 acetylcholine receptor (M2AChR) (Homo sapiens, UniProt P08172)", "T1 construct": "expressed in transfected cells; host or cells: CHO K1 (Chinese hamster ovary) cells constitutively expressing mitochondrially targeted aequorin and stably transfected with Galpha16", "T1 sequence (P08172 1-466)": "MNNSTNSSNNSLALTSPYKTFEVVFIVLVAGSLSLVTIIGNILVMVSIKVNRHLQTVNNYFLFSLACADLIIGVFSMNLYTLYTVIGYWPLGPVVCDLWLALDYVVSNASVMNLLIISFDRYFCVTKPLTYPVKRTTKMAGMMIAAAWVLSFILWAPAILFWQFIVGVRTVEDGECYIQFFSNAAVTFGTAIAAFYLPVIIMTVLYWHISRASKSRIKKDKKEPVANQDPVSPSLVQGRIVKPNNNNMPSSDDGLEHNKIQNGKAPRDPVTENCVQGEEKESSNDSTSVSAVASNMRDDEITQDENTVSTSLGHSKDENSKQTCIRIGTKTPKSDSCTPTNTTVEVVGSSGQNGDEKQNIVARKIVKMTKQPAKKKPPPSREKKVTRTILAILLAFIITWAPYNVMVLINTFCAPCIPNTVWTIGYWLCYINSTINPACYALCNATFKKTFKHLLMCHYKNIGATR", "test": "Cellular functional in vitro test (aequorin luminescence in recombinant CHO K1 cells)", "assay_type": "cell-based", "conditions": "agonist activity; CHO K1 cells expressing human M2AChR, aequorin and Gα16; luminescence readout", "text": "A recombinant cell line was used to identify agonists of the human M2 acetylcholine receptor (M2A ChR) and to quantify the activity of the substances described herein. The cell is originally derived from a hamster ovary epithelial cell (Chinese Hamster Ovary, CHO K1, ATCC: American Type Culture Collection, Manassas, Va. 20108, USA). The test cell line constitutively expresses a modified form of the calcium-sensitive photoprotein aequorin which after reconstitution with the cofactor coelenterazine emits light when the free calcium concentration in the inner mitochondrial compartment is increased (Rizzuto R. Simpson A W, Brini M, Pozzan T.; Nature 358 (1992) 325-327). The cell is additionally stably transfected with the human M2AChR (Peralta E G, Ashkenazi A, Winslow J W, Smith D H, Ramachandran J, Capon, D J, EMBO Journal 6 (1987) 3923-3929) and with the gene which codes for the promiscuous Gα16 protein (Amatruda T T, Steele D A, Slepak V Z, Simon M I, Proceedings in the National Academy of Science USA 88 (1991), 5587-5591). The resulting M2AChR test cell responds to stimulation of the recombinant M2ACh receptor with an intracellular release of calcium ions, which can be quantified through the resulting aequorin luminescence with a suitable luminometer (Milligan G, Marshall F, Rees S, Trends in Pharmacological Sciences 17 (1996) 235-237).\nTest procedure: The cells are plated out on the day before the test in culture medium (DMEM, 10% FCS, 2 mM glutamine, 10 mM HEPES; Gibco Cat.#21331-020; now belongs to: Invitrogen GmbH, 76131 Karlsruhe) in 384 (or 1536) well microtiter plates and kept in a cell incubator (96% humidity, 5% v/v CO2, 37° C.). On the day of the test, the culture medium is replaced by a Tyrode solution (in mM: 140 NaCl, 5 KCl, 1 MgCl2, 2 CaCl2, 20 glucose, 20 HEPES) which additionally contains the cofactor coelenterazine (50 μM), and the microtiter plate is then incubated for a further 3-4 hours. Immediately after the test substances have been transferred into the wells of the microtiter plate, the resulting light signal is measured in the luminometer."}
{"compound": "4-N-[(1-S-Methyl-(2-methylbutyl)glycyl]-1-cyclopropyl-2-oxo-N-[1-S-(4-pyridinyl)-ethyl]-1,2,3,4-tetrahydro-6-quinoxalinecarboxamide [Example 25]", "values": [{"measurement": "EC50", "result": 6, "unit": "nM"}]}
{"compound": "4-N-[(1-S-Methyl-(2-methylbutyl)glycyl]-1-cyclopropyl-2-oxo-N-[(3-pyridinyl-4-methoxy)ethyl]-1,2,3,4-tetrahydro-6-quinoxalinecarboxamide [Example 26]", "values": [{"measurement": "EC50", "result": 16, "unit": "nM"}]}
{"compound": "CC(NC(=O)c1ccc2c(c1)N(C(=O)CNC1CCCCC1)CC(=O)N2C1CC1)c1ccncc1", "note": "(single isomer, unassigned; (+)) [Example 7, (+)-4-(N-Cyclohexylglycyl)-1-cyclopropyl-2-oxo-N-[1-(4-pyridinyl)ethyl]-1,2,3,4-tetrahydro-6-quinoxalinecarboxamide]", "values": [{"measurement": "EC50", "result": 5, "unit": "nM"}]}
{"compound": "CC(NC(=O)c1ccc2c(c1)N(C(=O)CNC1CCC1)CC(=O)N2C1CC1)c1cccnc1", "note": "(stereo not shown) [Example 2, 4-(N-Cyclobutylglycyl)-1-cyclopropyl-2-oxo-N-[1-(3-pyridinyl)ethyl]-1,2,3,4-tetra-hydro-6-quinoxalinecarboxamide]", "values": [{"measurement": "EC50", "result": 1000, "unit": "nM"}]}
{"compound": "CC(NC(=O)c1ccc2c(c1)N(C(=O)CNC1CCCCC1)CC(=O)N2C1CC1)c1cccnc1", "note": "(stereo not shown) [Example 5, 4-(N-Cyclohexylglycyl)-1-cyclopropyl-2-oxo-N-[1-(3-pyridinyl)ethyl]-1,2,3,4-tetrahydro-6-quinoxalinecarboxamide]", "values": [{"measurement": "EC50", "result": 37, "unit": "nM"}]}
{"compound": "CC1CCCC(NCC(=O)N2CC(=O)N(C3CC3)c3ccc(C(=O)NC(C)c4cccnc4)cc32)C1", "note": "(stereo not shown) [Example 11, 1-Cyclopropyl-4-[N-(3-methylcyclohexyl)glycyl]-2-oxo-N-[1-(3-pyridinyl)ethyl]-1,2,3,4-tetrahydro-6-quinoxalinecarboxamide]", "values": [{"measurement": "EC50", "result": 320, "unit": "nM"}]}
{"compound": "O=C(NCc1ccsc1)c1ccc2c(c1)N(C(=O)CNC1CCCCC1)CC(=O)N2C1CC1", "note": "[Example 12, 4-(N-Cyclohexylglycyl)-1-cyclopropyl-2-oxo-N-(3-thienylmethyl)-1,2,3,4-tetrahydro-6-quinoxalinecarboxamide]", "values": [{"measurement": "EC50", "result": 1800, "unit": "nM"}]}
{"compound": "C[C@H](NC(=O)c1ccc2c(c1)N(C(=O)CN[C@H]1CC[C@H](O)CC1)CC(=O)N2C1CC1)c1ccncc1", "note": "[Example 22, 4-N-[(trans-4-Cyclohexanoyl)glycyl]-1-cyclopropyl-2-oxo-N-[1-S-(4-pyridinyl)-ethyl]-1,2,3,4-tetrahydro-6-quinoxalinecarboxamide]", "values": [{"measurement": "EC50", "result": 150, "unit": "nM"}]}
{"compound": "C[C@H](NC(=O)c1ccc2c(c1)N(C(=O)CNCC(C)(C)C)CC(=O)N2C1CC1)c1ccncc1", "note": "[Example 23]", "values": [{"measurement": "EC50", "result": 18, "unit": "nM"}]}
{"compound": "C[C@H](NC(=O)c1ccc2c(c1)N(C(=O)CN[C@@H](C)C(C)(C)C)CC(=O)N2C1CC1)c1ccncc1", "note": "[Example 24]", "values": [{"measurement": "EC50", "result": 32, "unit": "nM"}]}
